Data: US8604038B2, “Pyrrolidine derived beta 3 adrenergic receptor agonists” (Merck Sharp & Dohme Corp., priority 2009, dated 2013)

tested on: rats; assay: not given; details: intravenous administration, cystometric studies; cited from earlier work

Row | Compound | bladder capacity | micturition interval | residual urine volume
1 | C[C@H](Cc1ccc2c(c1)OC(C(=O)[O-])(C(=O)[O-])O2)NC[C@H](O)c1cccc(Cl)c1.[Na+].[Na+] [CL316243] | increases bladder capacity | prolongation of micturition interval | without increasing residual urine volume

same assay, conditions: intravenous administration; cited from earlier work

Row | Compound | bladder pressure
2 | C[C@H](Cc1ccc2c(c1)OC(C(=O)[O-])(C(=O)[O-])O2)NC[C@H](O)c1cccc(Cl)c1.[Na+].[Na+] [CL316243] | reduces bladder pressure

target: T1, human β3 adrenergic receptor (Homo sapiens, UniProt P13945); assay: Beta-3 agonist in vitro functional assay (cAMP production, LANCE, transfected CHO cells); assay type: cell-based; details: Table 3, CHO cells with cloned β3 receptor, ligands titrated 10^-12 M to 10^-5 M, read-out: Human β3 agonist functional activity
T1 construct: expressed in transfected cells; host or cells: CHO (Chinese hamster ovary) cells, stably transfected
Protocol: Functional Assay: For compounds in examples 1-50, cAMP production in response to ligand is measured according to Barton, et al. (1991, Agonist-induced desensitization of D2 dopamine receptors in human Y-79 retinoblastoma cells. Mol. Pharmacol. […]:650-658) modified as follows. The cAMP production is measured using a homogenous time-resolved fluorescence resonance energy transfer immunoassay (LANCE™, Perkin Elmer) according to the manufacture's instructions. Chinese hamster ovary (CHO) cells, stably transfected with the cloned β-adrenergic receptor (β1, β2 or β3) are harvested after 3 days of subculturing. Harvesting of cells is done with Enzyme-free Dissociation Media (Specialty Media). Cells are then counted and resuspended in assay buffer (Hank's Balanced salt solution supplemented with 5 mM HEPES, […]) containing a phosphodiesterase inhibitor (IBMX, 0.6 mM). The reaction is initiated by mixing 6,000 cells in 6 μL with 6 μL Alexa Fluor labeled cAMP antibody (LANCE™ kit) which is then added to an assay well containing 12 μL of compound (diluted in assay buffer to 2× final concentration). The reaction proceeds for 30 minutes at RT and is terminated by the addition of 24 ul detection buffer (LANCE™ kit). The assay plate is then incubated for 1 h at RT and time-resolved fluorescence measured on a Perkin Elmer Envision reader or equivalent. The unknown cAMP level is determined by comparing fluorescence levels to a cAMP standard curve.
The non-selective, full agonist β-adrenergic ligand isoproterenol is used at all three receptors to determine maximal stimulation. The human β3 adrenergic receptor (AR) selective ligand (S)-N-[4-[2-[[2-hydroxy-3-(4-hydroxyphenoxy)propyl]amino]ethyl]-phenyl]-4-iodobenzenesulfonamide is used as a control in all assays. […] The EC50 is defined as the concentration of compound that gives 50% activation of its own maximum. Data are analyzed using Microsoft Excel and Graphpad Prism or an internally developed data analysis software package.
The EC50 is defined as the concentration of compound that gives 50% activation of its own maximum. Functional antagonist assays are performed similar to described above; however, unknown ligands are titrated at β-adrenergic receptor subtypes 1 and 2 at a final concentration in the assay of 10^-12 M to 10^-5 M in the presence of 10^-9 M full agonist β-adrenergic ligand isoproterenol. The EC50 is defined as the concentration of compound that gives 50% inhibition of the full agonist response. Data are analyzed using Microsoft Excel and Graphpad Prism or an internally developed data analysis software package.

T1 sequence (P13945 whole entry): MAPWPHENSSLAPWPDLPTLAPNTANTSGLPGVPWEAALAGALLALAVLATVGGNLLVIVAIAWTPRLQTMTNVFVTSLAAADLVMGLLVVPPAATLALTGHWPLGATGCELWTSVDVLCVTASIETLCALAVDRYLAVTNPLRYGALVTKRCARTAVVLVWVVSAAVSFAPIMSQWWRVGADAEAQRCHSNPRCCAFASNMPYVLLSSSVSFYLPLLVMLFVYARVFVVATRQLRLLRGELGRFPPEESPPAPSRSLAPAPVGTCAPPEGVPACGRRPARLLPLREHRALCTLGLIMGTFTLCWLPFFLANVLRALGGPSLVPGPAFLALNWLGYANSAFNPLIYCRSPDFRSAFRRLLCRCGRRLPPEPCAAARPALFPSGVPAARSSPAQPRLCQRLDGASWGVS

Row | Compound | EC50 [nM]
3 | Cc1ccc(OCCN(C)C(=O)c2ccc(C[C@@H]3CC[C@H]([C@H](O)c4ccccc4)N3)cc2)cc1 [Example 120] | 1000 to 3000
4 | Cc1csc(CN(C)C(=O)c2ccc(C[C@@H]3CC[C@H]([C@H](O)c4ccccc4)N3)cc2)n1 [Example 123] | 100 to 999
5 | CN(Cc1ncc(Cl)cn1)C(=O)c1ccc(C[C@@H]2CC[C@H]([C@H](O)c3ccccc3)N2)cc1 [Example 125] | 100 to 999
6 | Cc1cccn2cc(CN(C)C(=O)c3ccc(C[C@@H]4CC[C@H]([C@H](O)c5ccccc5)N4)cc3)nc12 [Example 126] | 100 to 999
7 | CN(CC1CCCO1)C(=O)c1ccc(C[C@@H]2CC[C@H]([C@H](O)c3ccccc3)N2)cc1 (stereo partly shown) [Example 127] | 100 to 999
8 | CC(c1cccnc1)N(C)C(=O)c1ccc(C[C@@H]2CC[C@H]([C@H](O)c3ccccc3)N2)cc1 (stereo partly shown) [Example 128] | 1 to 9.9
9 | CCN(Cc1cccnn1)C(=O)c1ccc(C[C@@H]2CC[C@H]([C@H](O)c3ccccc3)N2)cc1 [Example 129] | 100 to 999
10 | O=C(c1ccc(C[C@@H]2CC[C@H]([C@H](O)c3ccccc3)N2)cc1)N(Cc1cccnn1)C1CC1 [Example 130] | 100 to 999
11 | COCCCN(Cc1cccnn1)C(=O)c1ccc(C[C@@H]2CC[C@H]([C@H](O)c3ccccc3)N2)cc1 [Example 131] | 100 to 999
12 | CN(Cc1csc(N)n1)C(=O)c1ccc(C[C@@H]2CC[C@H]([C@H](O)c3ccccc3)N2)cc1 [Example 132] | 100 to 999

Now from value to molecule:

Row | EC50 [nM] | Compound
13 | 10 to 99.9 | CN(Cc1ncc[nH]1)C(=O)c1ccc(C[C@@H]2CC[C@H]([C@H](O)c3ccccc3)N2)cc1 [Example 113]
14 | 1 to 9.9 | CN(Cc1nc2ccsc2c(=O)[nH]1)C(=O)c1ccc(C[C@@H]2CC[C@H]([C@H](O)c3ccccc3)N2)cc1 [Example 114]
15 | 100 to 999 | CCN(CCN)C(=O)c1ccc(C[C@@H]2CC[C@H]([C@H](O)c3ccccc3)N2)cc1 [Example 115]
16 | 10 to 99.9 | Cc1cnc(CN(CC(C)C)C(=O)c2ccc(C[C@@H]3CC[C@H]([C@H](O)c4ccccc4)N3)cc2)s1 [Example 116]
17 | 100 to 999 | CN(C(=O)c1ccc(C[C@@H]2CC[C@H]([C@H](O)c3ccccc3)N2)cc1)C1CCOC1 (stereo partly shown) [Example 117]
18 | 100 to 999 | CN(Cc1nccs1)C(=O)c1ccc(C[C@@H]2CC[C@H]([C@H](O)c3ccccc3)N2)cc1 [Example 118]
19 | 100 to 999 | CN(CCC1CCCCO1)C(=O)c1ccc(C[C@@H]2CC[C@H]([C@H](O)c3ccccc3)N2)cc1 (stereo partly shown) [Example 119]
20 | 100 to 999 | CCN(Cc1ccccn1)C(=O)c1ccc(C[C@@H]2CC[C@H]([C@H](O)c3ccccc3)N2)cc1 [Example 121]
21 | 10 to 99.9 | CN(Cc1cccnc1Cl)C(=O)c1ccc(C[C@@H]2CC[C@H]([C@H](O)c3ccccc3)N2)cc1 [Example 124]

same assay, conditions: given as a range, CHO cells with cloned β3 receptor, read-out: human Beta-3 agonist functional activity

Row | EC50 [nM] | Compound
22 | 10 to 99.9 | CN(C)C(=O)c1ccc(C[C@@H]2CC[C@H](C(O)c3ccc(N)nc3)N2)cc1 (stereo partly drawn) [Example 133, 4-({(2S,5R)-5-[(6-aminopyridin-3-yl)(hydroxy)methyl]pyrrolidin-2-yl}methyl)-N,N-dimethylbenzamide]
23 | 10 to 99.9 | CN(CCc1ccccn1)C(=O)c1ccc(C[C@@H]2CC[C@H]([C@H](O)c3ccccc3)N2)cc1 [Example 134, 4-({(2S,5R)-5-[(R)-hydroxy(phenyl)methyl]pyrrolidin-2-yl}methyl)-N-methyl-N-[2-(pyridin-2-yl)ethyl)benzamide]
24 | 10 to 99.9 | CN(Cc1ccccc1F)C(=O)c1ccc(C[C@@H]2CC[C@H]([C@H](O)c3ccccc3)N2)cc1 [Example 135, N-(2-fluorobenzyl)-4-({(2S,5R)-5-[(R)-hydroxy(phenyl)methyl]pyrrolidin-2-yl}methyl)-N-methylbenzamide]
25 | < 1 | CN(Cc1cccc(N)n1)C(=O)c1ccc(C[C@@H]2CC[C@H]([C@H](O)c3ccccc3)N2)cc1 [Example 136, N-[(6-aminopyridin-2-yl)methyl]-4-({(2S,5R)-5-[(R)-hydroxy(phenyl)methyl]pyrrolidin-2-yl}methyl)-N-methylbenzamide]
26 | 100 to 999 | CC(c1ccccn1)N(C)C(=O)c1ccc(CC2CC[C@H]([C@H](O)c3ccccc3)N2)cc1 (stereo partly shown) [Example 137]
